Data published in ChEMBL document CHEMBL3608230, “Design, synthesis and RON receptor tyrosine kinase inhibitory activity of new head groups analogs of LCRF-0004” (Bioorg Med Chem Lett, 2015).

Tests used:
[1] = biological target: Macrophage-stimulating protein receptor (Homo sapiens, UniProt Q04912); assay: Inhibition of human RON
[2] = biological target: Hepatocyte growth factor receptor (Homo sapiens, UniProt P08581); assay: Inhibition of c-Met phosphorylation in human MKN45 cells; assay type: cell-based, MKN-45
Chain of Hepatocyte growth factor receptor (P08581 whole entry): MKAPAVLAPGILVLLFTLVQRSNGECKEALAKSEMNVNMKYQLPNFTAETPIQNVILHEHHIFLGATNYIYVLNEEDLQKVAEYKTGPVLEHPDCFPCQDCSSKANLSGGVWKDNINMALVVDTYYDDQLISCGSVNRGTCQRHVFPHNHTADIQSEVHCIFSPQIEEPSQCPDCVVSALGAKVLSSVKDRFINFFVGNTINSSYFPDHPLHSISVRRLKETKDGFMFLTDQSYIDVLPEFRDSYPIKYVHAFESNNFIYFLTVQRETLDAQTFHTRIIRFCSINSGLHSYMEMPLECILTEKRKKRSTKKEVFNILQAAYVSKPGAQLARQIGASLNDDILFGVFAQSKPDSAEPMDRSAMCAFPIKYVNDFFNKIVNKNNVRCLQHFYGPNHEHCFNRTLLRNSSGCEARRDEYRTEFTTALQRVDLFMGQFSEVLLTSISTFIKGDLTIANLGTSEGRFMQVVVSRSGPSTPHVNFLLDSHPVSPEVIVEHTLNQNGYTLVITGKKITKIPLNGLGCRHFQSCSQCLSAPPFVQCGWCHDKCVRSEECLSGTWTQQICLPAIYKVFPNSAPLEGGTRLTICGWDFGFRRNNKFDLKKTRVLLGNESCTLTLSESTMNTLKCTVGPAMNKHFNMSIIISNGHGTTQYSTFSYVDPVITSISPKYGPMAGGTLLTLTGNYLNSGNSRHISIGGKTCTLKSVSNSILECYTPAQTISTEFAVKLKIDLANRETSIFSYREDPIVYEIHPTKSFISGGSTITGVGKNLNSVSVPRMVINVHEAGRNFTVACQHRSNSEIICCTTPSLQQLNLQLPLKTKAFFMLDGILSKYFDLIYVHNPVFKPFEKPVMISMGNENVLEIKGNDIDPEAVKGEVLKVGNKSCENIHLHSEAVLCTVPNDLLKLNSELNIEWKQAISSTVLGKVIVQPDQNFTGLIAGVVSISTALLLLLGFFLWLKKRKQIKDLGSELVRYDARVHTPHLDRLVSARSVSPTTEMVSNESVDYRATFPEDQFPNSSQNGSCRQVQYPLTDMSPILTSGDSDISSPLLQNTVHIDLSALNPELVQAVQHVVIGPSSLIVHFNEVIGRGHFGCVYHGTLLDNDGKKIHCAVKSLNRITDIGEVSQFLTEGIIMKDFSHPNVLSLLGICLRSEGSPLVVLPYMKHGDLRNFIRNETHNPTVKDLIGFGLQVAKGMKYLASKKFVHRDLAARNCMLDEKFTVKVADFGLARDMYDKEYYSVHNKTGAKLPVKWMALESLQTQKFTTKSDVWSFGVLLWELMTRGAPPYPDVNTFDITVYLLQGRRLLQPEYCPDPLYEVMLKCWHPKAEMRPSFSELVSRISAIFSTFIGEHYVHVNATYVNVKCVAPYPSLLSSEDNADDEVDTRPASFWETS

Chain of Macrophage-stimulating protein receptor (Q04912 25-304 limits assumed): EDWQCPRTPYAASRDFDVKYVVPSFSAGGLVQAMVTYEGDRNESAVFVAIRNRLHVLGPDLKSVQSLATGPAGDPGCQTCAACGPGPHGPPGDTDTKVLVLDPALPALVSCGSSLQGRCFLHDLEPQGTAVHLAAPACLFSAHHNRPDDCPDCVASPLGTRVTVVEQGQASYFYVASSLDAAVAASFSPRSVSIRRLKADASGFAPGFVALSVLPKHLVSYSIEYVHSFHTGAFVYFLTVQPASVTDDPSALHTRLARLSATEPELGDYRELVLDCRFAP
Chain of Macrophage-stimulating protein receptor (Q04912 310-1400 limits assumed): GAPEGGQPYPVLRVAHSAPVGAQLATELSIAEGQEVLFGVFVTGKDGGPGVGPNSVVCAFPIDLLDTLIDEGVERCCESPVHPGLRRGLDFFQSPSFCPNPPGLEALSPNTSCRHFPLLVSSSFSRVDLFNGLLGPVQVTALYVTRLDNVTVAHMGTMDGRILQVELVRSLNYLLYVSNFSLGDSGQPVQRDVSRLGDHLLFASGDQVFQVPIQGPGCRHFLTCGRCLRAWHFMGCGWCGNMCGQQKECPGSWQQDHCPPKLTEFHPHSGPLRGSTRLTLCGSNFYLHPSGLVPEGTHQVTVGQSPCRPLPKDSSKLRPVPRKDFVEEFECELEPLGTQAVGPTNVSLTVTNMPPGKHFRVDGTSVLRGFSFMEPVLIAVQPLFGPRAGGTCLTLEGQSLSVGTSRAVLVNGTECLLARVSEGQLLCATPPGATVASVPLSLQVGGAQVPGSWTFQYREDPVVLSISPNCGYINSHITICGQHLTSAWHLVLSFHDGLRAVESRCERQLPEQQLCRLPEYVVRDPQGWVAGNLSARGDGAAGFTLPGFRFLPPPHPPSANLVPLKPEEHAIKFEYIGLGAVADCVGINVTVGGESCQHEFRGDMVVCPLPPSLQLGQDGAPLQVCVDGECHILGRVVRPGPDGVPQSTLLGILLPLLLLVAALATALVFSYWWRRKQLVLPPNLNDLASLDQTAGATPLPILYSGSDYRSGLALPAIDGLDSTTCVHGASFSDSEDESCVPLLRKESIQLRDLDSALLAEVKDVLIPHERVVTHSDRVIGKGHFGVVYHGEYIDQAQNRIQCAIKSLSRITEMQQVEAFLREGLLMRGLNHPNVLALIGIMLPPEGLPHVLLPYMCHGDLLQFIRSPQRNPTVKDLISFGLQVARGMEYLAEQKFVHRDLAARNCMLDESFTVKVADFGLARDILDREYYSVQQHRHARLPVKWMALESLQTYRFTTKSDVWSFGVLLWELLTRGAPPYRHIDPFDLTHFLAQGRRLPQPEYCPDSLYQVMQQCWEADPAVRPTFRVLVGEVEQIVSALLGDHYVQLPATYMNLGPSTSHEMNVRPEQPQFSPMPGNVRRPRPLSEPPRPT

Row | IC50 [1] [nM] | IC50 [2] [nM] | Compound
1 | 101 |  | Cn1cnc(-c2cc3nccc(Oc4ccc(NC(=O)c5cc(-c6ccccc6)n(-c6ccccc6)c5)cc4F)c3s2)c1
2 | 27 |  | COc1cccc(-c2c(C(=O)Nc3ccc(Oc4ccnc5cc(-c6cn(C)cn6)sc45)c(F)c3)cnn2-c2ccccc2)c1
3 |  | > 10000 | COc1ccc(-c2c(C(=O)Nc3ccc(Oc4ccnc5cc(-c6cn(C)cn6)sc45)c(F)c3)cnn2-c2ccccc2)cc1
4 |  | > 10000 | Cn1cnc(-c2cc3nccc(Oc4ccc(NC(=O)c5cnn(-c6ccccc6)c5-c5ccncc5)cc4F)c3s2)c1
